Laboratory results: patent US12642865B2, “Toroidal mixed nanoparticle, method for preparing the same, and method for multifunctional delivery using the same” (China Medical University, priority 2022, dated 2026)

Key:
[1] = Hepatic and renal functional evaluation (serum); assay type: in vivo, mice; settings: after 16 d
Excerpt: To investigate the efficacy of tumor inhibition, HCT116-cell-bearing 4-week-old female Balb-c/nude mice whose tumor sizes were up to 500 mm^3 were separated into 3 groups and each group contained 5 mice. […] The tumor size and weight were monitored every 2 to 3 days for 16-days post-injection. At day 16 post-injection, the mice were all euthanized, and their blood was collected. Meanwhile, the tumor and liver of mice were collected. The tumors were photographed after excluding the extreme ones. The blood samples were centrifugated under 3000 RPM for 10 min to obtain the serum samples for hepatic and renal functional evaluations. The hepatic function was assessed by the aspartate aminotransferase (AST) and alanine aminotransferase (ALT) values; the function of the kidneys was evaluated with the index of blood urea nitrogen (BUN) and creatinine.

[2] = system: HCT116-cell-bearing Balb-c/nude mice; experiment: Histopathological analysis (H&E) of tumors and organs; assay type: in vivo; settings: Day 16; control: livers, lungs, and spleens
Protocol: The tumors and livers harvested from mice were preserved in 4% formalin overnight and the tumor and livers were embedded in paraffin to form paraffin tissue blocks. Afterwards, the tissues were sliced into 5-μm thick sections using a microtome (Leica RM 2145, Leica, Wetzlar, Germany). These sections were stained with H & E. The histopathological analysis was performed using an optical microscope (Optiphot-2, Nikon, Tokyo, Japan).

## NC1CCCCC1N.[Cl][Pt][Cl] (centres unmarked) [DACHPt, dichloro(1,2-diaminocyclohexane)platinum(II)]
[1]
  hepatic functional index ALT: 40 ± 3 U/L
  hepatic functional index AST: 134 ± 29 U/L
  renal functional index BUN: 32.9 ± 9.3 mg/dL
  renal functional index Creatinine: 0.44 ± 0.05 mg/dL
[2]
  tumor metastasis in organs (H&E sections): only observed in lungs
